From patent US10835564B2, “Composition for preventing and treating premature ovarian failure, containing Evodia rutaecarpa bentham extract having protective activity against ovotoxicity” (DONGGUK UNIVERSITY GYEONGJU CAMPUS INDUSTRY-ACADEMY …, priority 2015, dated 2020) come the findings set out here.

This assay relates to CHO-K1 cells. The experiment in a line: MTT assay, cytotoxicity against CHO-K1 cells. The format is cell-based, hamster. The settings on record: 24 hours, FIG. 4, read-out: concentration at which the viability of CHO-K1 cells became about 50%. As for the experimental part:
The cell viability was analyzed by a 3-(4,5-dimethylthiazol)-2,5-diphenyltetrazolium bromide (MTT) assay method. After CHO-K1 cells at 2×10^4 cells/well were cultured in a 48-well plate and then serum starved for 4 hours, VCD was treated at various concentrations or the respective medicines were pre-treated at 100 μg/ml, VCD (1.5 mM) was sequentially treated, and the cells were cultured under the conditions of 37° C. and 5% CO2 for 24 hours. After 30 μl of an MTT solution (2 mg/ml) per well was added thereto and the resulting mixture was allowed to react in an incubator at 37° C. and 5% CO2 for 3 hours, the MTT solution and the culture solution were completely removed, and then formazan crystallites formed in the cells were dissolved by using 150 μl of dimethyl sulfoxide (DMSO, Sigma-Aldrich, USA), and the absorbance thereof was measured at 595 nm by using an ELISA plate reader (DYNEX, Opsys MR, USA). The cell viability for the control was expressed as a percentage.
The cytotoxicity of VCD against CHO-K1 cells was evaluated by the MTT assay according to Example 1-4, and as a result, the concentration (1.5 mM) at which the viability of CHO-K1 cells by VCD became about 50% was determined (see FIG. 4), and the result was applied to the following experiment. […]

For the compound `C1CC2OC2CC1C1CO1` (stereo not shown) [VCD, 4-vinylcyclohexene diepoxide], the IC50 came to 1.5 mM.
